Series [1] concerns HBV (HepG2.117 cell line, inducibly HBV producing). Kind of series: Anti-HBV activity: intracellular HBV DNA by real-time PCR in HepG2.117 cells after 3 days of treatment. In kind it is cell-based, hepatitis B virus. The method in brief:
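Readout is intracellular HBV DNA, measured by real-time PCR with HBV-specific primers and probe after 3 days of exposure to serial compound dilutions. Cells are the stable HepG2.117 line, where HBV replication is induced in the absence of doxycycline.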
(In general: Real-time PCR tracks product formation cycle by cycle.)

The next series is described as follows: in vitro. In kind it is cell-based. The settings on record: human, HepG2 or HepG2.117 cells, ATPlite, mean value. The method in brief: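 Luminescent ATP quantitation served as the viability endpoint following a 3- or 4-day incubation with test compounds.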
For orientation: ATP-based viability assays read luminescence as a measure of living cells.

[2] abbreviates: Hepatitis B virus, HepG2.117, 72 h, HepG2.117 cells, 3 days of treatment, intracellular HBV DNA by real-time PCR; mean value; read-out: EC50 (μM, mean value).
Setting [3] is: 3-days incubation (unmarked values).
The mark [4] stands for this setting: Hepatitis B virus, HepG2.117, 72 h, HepG2.117 cells, intracellular HBV DNA by real-time PCR, 3 days of treatment, mean value; read-out: EC50 (μM, mean value).
[5] abbreviates: 3-days incubation (not marked with *).

Where two headings read alike, the source gives them in different places. Where only a bound is given, the exact number is not on record here.

As a reminder, the EC50 is the concentration giving half of the maximal effect. For orientation: CC50 means the concentration giving 50% cytotoxicity.

With `CC(C)Nc1nc2c(c(=O)n1-c1ccc(-n3cccn3)cc1)C[C@@H](C)N(C(=O)c1ccc(Cl)c(Cl)c1)C2` [Compound C166, (6R)-7-(3,4-dichlorobenzoyl)-6-methyl-2-[(propan-2-yl)amino]-3-[4-(1H-pyrazol-1-yl)phenyl]-5,6,7,8-tetrahydropyrido[3,4-d]pyrimidin-4(3H)-one], the EC50 in series [1] (setting [2]) was found to be 0.11 µM. Moreover, in the series “in vitro” (setting [3]), the CC50 at 3 days is more than 50 µM.
For `CNC(=O)c1ccc(-n2c(N3CCC[C@@H]3C3CC3)nc3c(c2=O)C[C@@H](C)N(C(=O)c2ccc(Cl)c(Cl)c2)C3)cc1` (single isomer, unassigned) [Compound C352, 4-[(6R)-2-[(2*R)-2-cyclopropylpyrrolidin-1-yl]-7-(3,4-dichlorobenzoyl)-6-methyl-4-oxo-5,6,7,8-tetrahydropyrido[3,4-d]pyrimidin-3(4H)-yl]-N-methylbenzamide] the same measures were 0.29 µM and 27.5 µM.
Regarding `CNC(=O)c1ccc(-n2c(N[C@@H](C)c3cccnc3)nc3c(c2=O)C[C@@H](C)N(C(=O)c2ccc(Cl)c(Cl)c2)C3)cc1` (single isomer, unassigned) [Compound C377b], in series [1] (setting [2]), the concentration giving a half-maximal response (EC50) came out at 3.95 µM. In the series “in vitro” (setting [3]), this compound registered a CC50 at 3 days of more than 50 µM.
Take `CC(C)N(CCO)c1nc2c(c(=O)[nH]1)CCN(C(=O)c1ccc(Cl)c(Cl)c1)C2` [Compound C97, 7-(3,4-dichlorobenzoyl)-2-[(2-hydroxyethyl)(propan-2-yl)amino]-5,6,7,8-tetrahydropyrido[3,4-d]pyrimidin-4(3H)-one]: the EC50 in series [1] (setting [2]) worked out at 3.22 µM. Also, the CC50 at 3 days in the series “in vitro” (setting [3]) was more than 50 µM.
Turning to `CNC(=O)c1ccc(-n2c(N[C@@H](C)c3ccc4c(ccn4C)c3)nc3c(c2=O)C[C@@H](C)N(C(=O)c2ccc(Cl)c(Cl)c2)C3)cc1` (single isomer, unassigned) [Compound C450b], the EC50 in series [1] (setting [4]) was 0.18 µM. In addition, the CC50 at 3 days in “in vitro” (setting [5]) is more than 50 µM.
Turning to `CNC(=O)c1ccc(-n2c(NCc3nc(C(F)(F)F)n[nH]3)nc3c(c2=O)C[C@@H](C)N(C(=O)c2ccc(Cl)c(Cl)c2)C3)cc1` [Compound C598], the EC50 in series [1] (setting [4]) was more than 25 µM. The compound also gave a CC50 at 3 days in the series “in vitro” (setting [5]) of more than 50 µM.
As to `COc1ccc(CNc2nc3c(c(=O)n2C2CCN(S(C)(=O)=O)CC2)CCN(C(=O)c2ccc(Cl)c(Cl)c2)C3)cc1` [Compound C66, 7-(3,4-dichlorobenzoyl)-3-[1-(methanesulfonyl)piperidin-4-yl]-2-{[(4-methoxyphenyl)methyl]amino}-5,6,7,8-tetrahydropyrido[3,4-d]pyrimidin-4(3H)-one], the EC50 in series [1] (setting [2]) is 0.77 µM. For the same compound, the CC50 at 3 days in the series “in vitro” (setting [3]) was more than 50 µM.
For `CNC(=O)c1ccc(-n2c(N[C@@H](C)c3ccc4[nH]ccc4c3)nc3c(c2=O)C[C@@H](C)N(C(=O)c2ccc(Cl)c(Cl)c2)C3)cc1` (single isomer, unassigned) [Compound C449b], the EC50 in series [1] (setting [4]) was 0.2 µM. In the series “in vitro” (setting [5]), this compound returned a CC50 at 3 days of 46.4 µM.
Turning to `COc1ccc(CNc2nc3c(c(=O)n2-c2ccc4ncoc4c2)CCN(C(=O)c2ccc(Cl)c(Cl)c2)C3)cc1` [Compound C131, 3-(1,3-benzoxazol-6-yl)-7-(3,4-dichlorobenzoyl)-2-{[(4-methoxyphenyl)methyl]amino}-5,6,7,8-tetrahydropyrido[3,4-d]pyrimidin-4(3H)-one], in series [1] (setting [2]), the EC50 turned out to be 0.53 µM. The compound further displayed a CC50 at 3 days in the series “in vitro” (setting [3]) of more than 50 µM.
Take `CC(C)Nc1nc2c(c(=O)n1-c1ccc(-c3nnc[nH]3)cc1)C[C@@H](C)N(C(=O)c1ccc(Cl)c(Cl)c1)C2` [Compound C610]: in series [1] (setting [4]), the EC50 was 0.17 µM. Moreover, in the series “in vitro” (setting [5]), the CC50 at 3 days is more than 50 µM.
As for `CNC(=O)c1ccc(-n2c(N[C@@H]3CCCC3(C)C)nc3c(c2=O)C[C@@H](C)N(C(=O)c2ccc(Cl)c(Cl)c2)C3)cc1` (single isomer, unassigned) [Compound C318, 4-[(6R)-7-(3,4-dichlorobenzoyl)-2-{[(1*R)-2,2-dimethylcyclopentyl]amino}-6-methyl-4-oxo-5,6,7,8-tetrahydropyrido[3,4-d]pyrimidin-3(4H)-yl]-N-methylbenzamide], the half-maximal effective concentration (EC50) in series [1] (setting [2]) came to 0.68 µM. This compound also showed a CC50 at 3 days in the series “in vitro” (setting [3]) of 23.2 µM.

(Values after US20230091047A1 (priority 2019, published 2023).)
